The values below come from ChEMBL document CHEMBL1201862, “PubChem BioAssay data set” (2004).

Where “and” joins values, the source holds several entries; their conditions need not be identical. Identical values can stand only once. Calls of active or inactive are those of the source.

Assay [1] has as its target Paired box protein Pax-8 (Homo sapiens, UniProt Q06710). Description: PAX8 transcriptional activity inhibition in RMG-I – RMG-I cells, luciferase, cherry-pick, dose response (AID 687027).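 Also: luciferase reporter driven by Pax8 target thyroperoxidase promoter measured by SteadyGlo luminescence.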 The format is functional, cell-based.
Assay [2] has as its target Beta-galactosidase (Escherichia coli, UniProt Q8VNN2). The class given is functional.
The target of assay [3] is T1, Delta-type opioid receptor (Homo sapiens, UniProt P41143). As to the kind of experiment: HTS Image-Based Screen for Antagonists of the DOR Receptor. [Related pubchem assays (depositor defined):AID1777, AID1785, AID1786, AID2133]. The class given is functional.
For assay [4], the target named is T1, Delta-type opioid receptor. As to the kind of experiment: HTS Image-Based Screen for Agonists of the DOR Receptor. [Related pubchem assays (depositor defined):AID1777, AID1786, AID2133]. The class given is functional.
In assay [5] the target is T2, Kappa-type opioid receptor (Homo sapiens, UniProt P41145). The class given is functional.
Assay [6] has as its target T3, Ubiquitin-conjugating enzyme E2 N (Homo sapiens, UniProt P61088).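 Also: Dose-response confirmation in a TR-FRET assay detecting UBC13-driven polyubiquitin chain formation, inhibition measured.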
T3 sequence (P61088 whole entry): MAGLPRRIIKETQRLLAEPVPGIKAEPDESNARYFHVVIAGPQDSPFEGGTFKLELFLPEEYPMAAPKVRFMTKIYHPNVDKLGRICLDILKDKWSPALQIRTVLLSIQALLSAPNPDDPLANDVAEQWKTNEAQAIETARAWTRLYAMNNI
The class given is functional.

In assay [7] the target is T2, Kappa-type opioid receptor. The format is functional. This is another data set of the same source.
The target in assay [8] is Mu-type opioid receptor (Homo sapiens, UniProt P35372). Description: HTS Image-Based Screen for Agonists of the MOR Receptor. [Related pubchem assays (depositor defined):AID1777, AID1785, AID1786, AID2133]. The format is functional.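 Also: imaging of beta-arrestin GFP recruitment into spots after receptor activation.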
Assay [9] has as its target G-protein coupled receptor 55 (Homo sapiens, UniProt Q9Y2T6). As to the kind of experiment: blockers of GPR55 signalling, imaged – imaging, image-based, counter-screen for GPR35 antagonist project, SAR follow-up (AID 2397). The class given is functional.
The target in assay [10] is T4, G-protein coupled receptor 35 (Homo sapiens, UniProt Q9HC97). Description: inhibition of zaprinast-stimulated GPR35 beta-arrestin translocation – imaging, U2OS, beta-arrestin-GFP, zaprinast agonist, primary screen (AID 2058).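 Also: antagonist potency meaning inhibition of agonist-induced arrestin redistribution.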 The format is functional.
T4 sequence (Q9HC97 whole entry): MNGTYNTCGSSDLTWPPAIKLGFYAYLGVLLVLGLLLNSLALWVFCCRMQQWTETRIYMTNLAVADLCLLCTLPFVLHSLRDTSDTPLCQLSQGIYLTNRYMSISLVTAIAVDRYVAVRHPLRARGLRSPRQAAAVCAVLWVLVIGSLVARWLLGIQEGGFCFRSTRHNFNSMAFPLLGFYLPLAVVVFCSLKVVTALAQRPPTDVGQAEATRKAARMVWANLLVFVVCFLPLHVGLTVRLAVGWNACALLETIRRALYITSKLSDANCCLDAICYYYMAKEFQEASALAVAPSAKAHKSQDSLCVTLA
The target in assay [11] is T4, G-protein coupled receptor 35. As to the kind of experiment: SAR Analysis for the identification of Selective Antagonists of ERK1/2 Activity in GPR35-Overexpressing U2OS Cells. [Related pubchem assays: 2079, 2058 ]. The class given is functional, cell-based.
The target in assay [12] is T5, Tyrosine-protein phosphatase non-receptor type 7 (Homo sapiens, UniProt P35236).
T5 sequence (P35236 whole entry): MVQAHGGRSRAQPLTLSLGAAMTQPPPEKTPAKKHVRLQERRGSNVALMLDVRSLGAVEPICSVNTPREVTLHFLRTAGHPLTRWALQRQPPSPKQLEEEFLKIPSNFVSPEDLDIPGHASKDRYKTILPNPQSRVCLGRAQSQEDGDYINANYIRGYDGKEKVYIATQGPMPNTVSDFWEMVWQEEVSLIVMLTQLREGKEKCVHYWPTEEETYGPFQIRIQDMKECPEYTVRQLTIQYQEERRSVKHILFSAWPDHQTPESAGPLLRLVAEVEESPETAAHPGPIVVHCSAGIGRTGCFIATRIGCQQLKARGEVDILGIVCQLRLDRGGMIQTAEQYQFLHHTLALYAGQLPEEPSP
The class given is functional.

For assay [13], the target named is T6, Tyrosine-protein phosphatase non-receptor type 22 (Homo sapiens, UniProt Q9Y2R2). The format is functional.
T6 sequence (Q9Y2R2 whole entry): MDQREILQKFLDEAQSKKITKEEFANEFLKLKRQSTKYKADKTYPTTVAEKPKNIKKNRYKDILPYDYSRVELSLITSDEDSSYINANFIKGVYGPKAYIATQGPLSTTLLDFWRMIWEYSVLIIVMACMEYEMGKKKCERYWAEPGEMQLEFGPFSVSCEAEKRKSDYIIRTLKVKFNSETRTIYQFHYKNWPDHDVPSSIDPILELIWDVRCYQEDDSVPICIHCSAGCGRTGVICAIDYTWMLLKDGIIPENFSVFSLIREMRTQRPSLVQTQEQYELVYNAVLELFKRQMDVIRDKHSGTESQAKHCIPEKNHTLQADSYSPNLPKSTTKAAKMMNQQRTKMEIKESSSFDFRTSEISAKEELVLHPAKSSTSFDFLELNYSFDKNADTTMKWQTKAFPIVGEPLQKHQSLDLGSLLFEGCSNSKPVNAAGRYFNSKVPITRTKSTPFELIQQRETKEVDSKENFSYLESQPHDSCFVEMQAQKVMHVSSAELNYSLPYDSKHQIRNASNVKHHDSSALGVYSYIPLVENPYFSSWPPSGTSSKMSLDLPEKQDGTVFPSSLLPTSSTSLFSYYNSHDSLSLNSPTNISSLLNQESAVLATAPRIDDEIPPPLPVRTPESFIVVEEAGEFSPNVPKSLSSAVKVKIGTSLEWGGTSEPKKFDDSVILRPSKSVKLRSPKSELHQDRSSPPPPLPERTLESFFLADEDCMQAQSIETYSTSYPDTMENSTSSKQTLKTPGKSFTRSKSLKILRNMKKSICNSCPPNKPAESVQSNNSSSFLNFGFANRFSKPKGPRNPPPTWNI
Assay [14] has as its target T6, Tyrosine-protein phosphatase non-receptor type 22. The class given is functional. This is another data set of the same source.
In assay [15] the target is Lysine-specific demethylase 4A (Homo sapiens, UniProt O75164). Description: inhibition of JMJD2A H3K9me3 demethylation – biochemical, DELFIA europium, cherry-picked samples, selectivity assay for GASC-1 inhibitor project, dose response (AID 488840).
A short description of assay [16]: NIH3T3 cell viability loss – ATP luminescence, mouse fibroblasts, counter-screen, dose response (AID 2010).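 Also: cells exposed to compound for about 90 hours before reading.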 The class given is functional, cell-based.
A short description of assay [17]: Trypanosoma cruzi growth suppression in host cells – NIH3T3 host cells, beta-gal luminescence, confirmation (AID 2044).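 Also: intracellular parasites grown in NIH/3T3 mouse fibroblasts as host cells; luminescent beta-galactosidase reporter signal from transgenic T. cruzi replicating inside host cells; inhibitors lower the luminescence signal.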 The format is functional, cell-based.
In assay [18] the target is Tumor necrosis factor (Homo sapiens, UniProt P01375). As to the kind of experiment: analog potency on TNFa NF-kB signaling – cell-based, revised, SAR follow-up (AID 2337). The format is functional.
Sequence of Tumor necrosis factor (P01375 whole entry): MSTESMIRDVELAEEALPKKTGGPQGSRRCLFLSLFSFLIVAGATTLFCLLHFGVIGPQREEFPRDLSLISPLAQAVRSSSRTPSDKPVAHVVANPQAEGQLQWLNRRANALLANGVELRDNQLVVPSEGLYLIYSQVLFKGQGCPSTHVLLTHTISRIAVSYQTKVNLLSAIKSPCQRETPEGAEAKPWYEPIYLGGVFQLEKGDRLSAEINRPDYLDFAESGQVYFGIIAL
Assay [19] relates to HEK293. As to the kind of experiment: cells. The note with it: Homo sapiens.
Assay [20] deals with HEK293. As to the kind of experiment: NOD2 signaling inhibitors in MDP-stimulated cells, cell-based, uHTS, luminescence (AID 2001). The class given is functional. Particulars: Homo sapiens.
In assay [21] the test system is HEK293. As to the kind of experiment: inhibition of NOD1-driven NF-kB reporter – cell-based, luminescence, uHTS, primary screen (AID 1578). The class given is functional. The note with it: Homo sapiens.
In assay [22] the test system is HEK293. Description: cells. The note with it: Homo sapiens. The format is functional, cell-based.
For assay [23], the target named is Nucleotide-binding oligomerization domain-containing protein 1 (Homo sapiens, UniProt Q9Y239). As to the kind of experiment: blockers of NOD1 pathway activity – revised, SAR follow-up (AID 2333). The format is functional.
Assay [24] relates to HEK293. Description: cells. The format is functional, cell-based. Particulars: Homo sapiens. The source holds these as a separate data set.
Assay [25] has as its target Nucleotide-binding oligomerization domain-containing protein 2 (Homo sapiens, UniProt Q9HC29). Description: PubChem AID 2334. The format is functional.
The target in assay [26] is T7, Probable nicotinate-nucleotide adenylyltransferase (Staphylococcus aureus (strain N315), UniProt P65502). The class given is functional, Staphylococcus aureus subsp. aureus N315.
T7 sequence (P65502 whole entry): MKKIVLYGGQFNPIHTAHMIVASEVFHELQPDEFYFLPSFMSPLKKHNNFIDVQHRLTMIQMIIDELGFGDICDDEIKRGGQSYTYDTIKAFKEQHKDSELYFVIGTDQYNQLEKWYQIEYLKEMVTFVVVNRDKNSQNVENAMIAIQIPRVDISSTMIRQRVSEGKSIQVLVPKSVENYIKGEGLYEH
In assay [27] the target is T8, Induced myeloid leukemia cell differentiation protein Mcl-1 (Homo sapiens, UniProt Q07820). As to the kind of experiment: blockers of MCL1 binding to BIM peptide – biochemical, fluorescence polarization, BIM-BH3 peptide, 1536-well, dose response (AID 2217).
T8 sequence (Q07820 whole entry): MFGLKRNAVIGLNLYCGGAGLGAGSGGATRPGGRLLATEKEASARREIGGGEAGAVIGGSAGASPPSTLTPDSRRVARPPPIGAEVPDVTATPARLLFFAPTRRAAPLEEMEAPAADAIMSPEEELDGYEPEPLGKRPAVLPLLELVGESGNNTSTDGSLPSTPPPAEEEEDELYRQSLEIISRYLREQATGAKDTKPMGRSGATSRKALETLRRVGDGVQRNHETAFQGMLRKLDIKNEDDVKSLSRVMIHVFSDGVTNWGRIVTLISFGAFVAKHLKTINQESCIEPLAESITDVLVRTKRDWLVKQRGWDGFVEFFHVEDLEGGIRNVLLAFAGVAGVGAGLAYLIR
In assay [28] the target is T9, Voltage-gated N-type calcium channel alpha-1B subunit/Amyloid beta A4 precursor protein-binding family A member 1 (Homo sapiens, UniProt Q00975+Q02410). The class given is protein assay.
T9 sequence (Q00975 whole entry): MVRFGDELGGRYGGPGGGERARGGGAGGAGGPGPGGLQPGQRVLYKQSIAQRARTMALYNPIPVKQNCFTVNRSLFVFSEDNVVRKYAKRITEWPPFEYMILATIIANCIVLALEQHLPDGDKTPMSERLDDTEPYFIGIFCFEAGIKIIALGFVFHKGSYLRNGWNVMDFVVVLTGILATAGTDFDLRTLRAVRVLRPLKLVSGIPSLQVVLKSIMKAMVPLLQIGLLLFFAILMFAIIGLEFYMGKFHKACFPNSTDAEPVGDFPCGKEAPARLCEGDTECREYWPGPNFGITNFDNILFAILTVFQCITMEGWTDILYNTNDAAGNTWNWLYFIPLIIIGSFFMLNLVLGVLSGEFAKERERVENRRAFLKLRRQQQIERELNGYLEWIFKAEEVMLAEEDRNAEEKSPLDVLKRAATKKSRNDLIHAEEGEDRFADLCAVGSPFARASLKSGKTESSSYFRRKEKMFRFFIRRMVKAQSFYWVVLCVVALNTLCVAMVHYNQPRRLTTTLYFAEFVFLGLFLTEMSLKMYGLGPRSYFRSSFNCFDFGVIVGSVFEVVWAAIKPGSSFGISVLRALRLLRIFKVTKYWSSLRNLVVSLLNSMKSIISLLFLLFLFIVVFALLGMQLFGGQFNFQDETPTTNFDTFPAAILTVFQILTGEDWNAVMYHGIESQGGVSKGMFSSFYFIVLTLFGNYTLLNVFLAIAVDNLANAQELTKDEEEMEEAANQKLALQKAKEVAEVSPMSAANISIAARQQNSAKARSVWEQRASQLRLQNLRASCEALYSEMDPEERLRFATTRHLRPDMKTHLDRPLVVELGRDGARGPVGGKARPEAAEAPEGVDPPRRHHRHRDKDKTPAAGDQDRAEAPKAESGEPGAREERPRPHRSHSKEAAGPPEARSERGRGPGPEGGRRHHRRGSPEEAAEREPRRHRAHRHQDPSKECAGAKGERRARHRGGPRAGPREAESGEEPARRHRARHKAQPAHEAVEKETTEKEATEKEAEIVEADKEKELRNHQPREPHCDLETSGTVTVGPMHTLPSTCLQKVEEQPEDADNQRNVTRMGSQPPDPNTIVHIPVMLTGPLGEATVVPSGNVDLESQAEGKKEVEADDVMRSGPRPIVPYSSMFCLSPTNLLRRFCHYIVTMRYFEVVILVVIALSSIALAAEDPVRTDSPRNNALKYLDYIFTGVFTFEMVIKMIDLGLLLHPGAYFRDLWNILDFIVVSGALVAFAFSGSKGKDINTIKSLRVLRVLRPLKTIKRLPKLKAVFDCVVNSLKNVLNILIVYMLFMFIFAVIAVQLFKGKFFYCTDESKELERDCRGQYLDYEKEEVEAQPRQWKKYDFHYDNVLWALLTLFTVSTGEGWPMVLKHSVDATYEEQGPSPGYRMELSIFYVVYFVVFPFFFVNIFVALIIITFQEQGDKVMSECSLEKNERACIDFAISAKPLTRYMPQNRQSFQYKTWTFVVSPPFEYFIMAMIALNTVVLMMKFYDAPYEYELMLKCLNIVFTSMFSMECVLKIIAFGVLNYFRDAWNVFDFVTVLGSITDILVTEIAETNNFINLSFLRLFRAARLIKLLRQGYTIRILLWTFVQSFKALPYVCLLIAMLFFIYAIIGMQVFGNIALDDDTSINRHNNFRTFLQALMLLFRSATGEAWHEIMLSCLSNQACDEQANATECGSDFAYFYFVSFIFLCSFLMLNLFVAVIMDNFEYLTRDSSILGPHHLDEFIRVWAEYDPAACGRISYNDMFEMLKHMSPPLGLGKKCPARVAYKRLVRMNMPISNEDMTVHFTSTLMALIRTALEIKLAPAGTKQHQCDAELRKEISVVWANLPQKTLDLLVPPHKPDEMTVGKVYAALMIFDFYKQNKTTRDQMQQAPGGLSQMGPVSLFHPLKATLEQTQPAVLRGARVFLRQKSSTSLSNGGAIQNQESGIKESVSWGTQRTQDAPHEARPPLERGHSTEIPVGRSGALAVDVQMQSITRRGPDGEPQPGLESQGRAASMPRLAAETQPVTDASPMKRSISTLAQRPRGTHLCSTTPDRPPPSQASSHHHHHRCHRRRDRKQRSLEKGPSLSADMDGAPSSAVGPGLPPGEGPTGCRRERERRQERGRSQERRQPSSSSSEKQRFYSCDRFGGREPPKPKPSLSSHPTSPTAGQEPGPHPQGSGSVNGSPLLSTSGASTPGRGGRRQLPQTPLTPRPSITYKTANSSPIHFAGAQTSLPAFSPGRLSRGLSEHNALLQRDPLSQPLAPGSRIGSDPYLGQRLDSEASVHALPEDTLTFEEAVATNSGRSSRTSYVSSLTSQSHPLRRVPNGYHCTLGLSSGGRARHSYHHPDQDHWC
T9 sequence (Q02410 whole entry): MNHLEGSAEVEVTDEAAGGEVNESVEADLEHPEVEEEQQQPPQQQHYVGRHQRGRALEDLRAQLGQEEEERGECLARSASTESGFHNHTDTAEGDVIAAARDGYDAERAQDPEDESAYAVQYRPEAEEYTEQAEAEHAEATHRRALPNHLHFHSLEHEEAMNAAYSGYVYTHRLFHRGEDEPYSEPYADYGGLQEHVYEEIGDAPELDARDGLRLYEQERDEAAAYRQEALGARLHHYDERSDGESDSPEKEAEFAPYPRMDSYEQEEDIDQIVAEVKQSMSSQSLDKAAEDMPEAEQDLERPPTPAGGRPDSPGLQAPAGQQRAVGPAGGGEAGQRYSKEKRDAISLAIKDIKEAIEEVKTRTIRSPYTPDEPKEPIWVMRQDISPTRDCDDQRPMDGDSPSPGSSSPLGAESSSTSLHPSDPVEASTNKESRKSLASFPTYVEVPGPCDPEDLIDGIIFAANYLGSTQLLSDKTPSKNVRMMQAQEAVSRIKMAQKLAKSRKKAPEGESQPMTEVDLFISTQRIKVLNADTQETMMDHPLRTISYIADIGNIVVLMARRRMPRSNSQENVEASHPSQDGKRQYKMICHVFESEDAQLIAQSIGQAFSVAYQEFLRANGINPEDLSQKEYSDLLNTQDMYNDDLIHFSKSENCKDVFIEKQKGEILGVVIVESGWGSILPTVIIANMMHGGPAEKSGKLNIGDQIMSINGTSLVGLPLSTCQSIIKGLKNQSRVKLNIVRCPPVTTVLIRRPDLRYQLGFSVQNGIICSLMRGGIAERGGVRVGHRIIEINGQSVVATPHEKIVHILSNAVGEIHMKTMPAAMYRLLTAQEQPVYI
In assay [29] the target is DNA (cytosine-5)-methyltransferase 1 (Homo sapiens, UniProt P26358). As to the kind of experiment: inhibition of DNA methylation by DNMT1 – biochemical, fluorescent molecular beacon, confirmation (AID 602386). The format is functional.
Assay [30] concerns the target T9, Voltage-gated N-type calcium channel alpha-1B subunit/Amyloid beta A4 precursor protein-binding family A member 1. Description: disruptors of Mint-PDZ/N-type channel peptide interaction – biochemical, HTRF, SAR follow-up (AID 2489). The format is functional. For orientation: In TR-FRET formats the signal depends on donor and acceptor labels being close together.

Assay [31] has the same target. The format is protein assay. The source holds these as a separate data set.
Assay [32] concerns the target T8, Induced myeloid leukemia cell differentiation protein Mcl-1. The format is functional.
In assay [33] the target is Bcl-2-like protein 1 (Homo sapiens, UniProt Q07817). Description: blockers of BCLXL peptide binding – biochemical, fluorescence polarization, 1536-well, selectivity assay for MCL1 inhibitor project, dose response (AID 2218). For orientation: Polarisation of emitted light reports the rotation of a fluorescent probe.
The target of assay [34] is T10, Genome polyprotein (Hepatitis C virus, UniProt Q2Q167).
T10 sequence (Q2Q167 whole entry): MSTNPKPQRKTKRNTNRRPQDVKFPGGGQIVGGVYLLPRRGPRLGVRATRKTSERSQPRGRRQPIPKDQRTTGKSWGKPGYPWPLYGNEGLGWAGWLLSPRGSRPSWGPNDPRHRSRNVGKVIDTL
Description: disruption of hepatitis C core self-association – biochemical, TR-FRET, dose response (AID 2159).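 Also: blocks dimerization of HCV core protein measured by TR-FRET between tagged core106 pairs.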 Also noted: species or system Hepacivirus hominis.

The target in assay [35] is T7, Probable nicotinate-nucleotide adenylyltransferase. The format is functional, Staphylococcus aureus subsp. aureus N315. Particulars: read-out: IC50_Mean.
Assay [36] has as its target SUMO E1/E2 (Homo sapiens, UniProt P63279+Q9UBE0+Q9UBT2). Description: SAR analysis of SUMOylation using HTRF in an in-Vitro dose response assay. [Related pubchem assays (depositor defined):AID2006, AID2011, AID2018, AID2069, AID2658]. The class given is functional.
In assay [37] the target is Protein-tyrosine kinase 2-beta (Homo sapiens, UniProt Q14289).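 Also: potency of inhibitors of PYK2 kinase phosphorylation of poly-GT substrate.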
Assay [38] concerns the target T9, Voltage-gated N-type calcium channel alpha-1B subunit/Amyloid beta A4 precursor protein-binding family A member 1. Description: disruptors of Mint-PDZ/N-type channel peptide interaction – biochemical, HTRF, set 2, SAR follow-up (AID 434980). The format is functional.
Assay [39] concerns the target Protein Rev (Human immunodeficiency virus type 1 group M subtype B (isolate WMJ22)(HIV-1), UniProt P05866). As to the kind of experiment: inhibitors of Rev protein–RRE RNA complex – biochemical, protein-RNA interaction, dose response (AID 842). Also noted: species or system Human immunodeficiency virus 1.
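For IC50 Mean in this document: confirmatory dose-response retesting of NadD inhibitor hits first found in an ultra-high-throughput screen.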

With `Cc1ccc(C(=O)N[C@@H](C)CN2C3=NC[C@@H](Cc4ccccc4)N3C[C@H]2Cc2ccc(O)cc2)cc1Br`, the AC50 in [1] was 24.8 µM (active). The EC50 in assay [2] is > 31.5 µM (inactive); in assay [4], 31.2 µM (inactive); in [8] it was > 32 µM (inactive). Also, the IC50 in assay [3] was > 32 µM (inactive); in assay [5], 3.16 µM (active); in assay [6] it was > 20 µM (inactive); in assay [7], 1.44 µM.
Turning to `CC(C)(C)c1ccc(OCCC(=O)NCCc2ccc(S(N)(=O)=O)cc2)cc1`, the figures for the IC50 in assay [9], in [10] and in assay [11] were > 32 µM (inactive), 0.929 µM (active) and 9.95 µM (active), respectively.
Turning to `COc1ccc(N2CCN(CCOc3ccc4c(C)cc(=O)oc4c3)CC2)cc1`, the IC50 in assay [12], in assay [13] and in assay [14] was > 79.4 µM (inactive) throughout.
As for `O=C(NN=C1CCCCCCCCCCC1)c1cccc(S(=O)(=O)N2CCOCC2)c1`, in [15], the AC50 is 18.1 µM (active).
For `COc1ccc(C(=O)NC(=S)N(C)C2CCCCC2)cc1Br`, the EC50 in assay [16] is 12.4 µM (active); in [17], 3.6 µM (active); in assay [21], > 20 µM (inactive). Moreover, the IC50 in assay [18] was > 20 µM (inactive); in [19], > 20 µM (inactive); in assay [20], 6.75 µM (inactive); in [22], > 20 µM (inactive); in [23] it was > 20 µM (inactive); in assay [24] it was > 20 µM (inactive). Further, the IC50 in [25] was > 20 µM (inactive).
For the compound `O=C(N/N=C/c1cccc(F)c1)c1cc(-c2ccco2)nc2ccccc12`, the IC50 in assay [26] was 7.33 µM (active); in [27], 7.19 µM (active); in assay [28] it was 3.18 µM (active); in assay [29], 4.81 µM (active); in assay [30], > 56.8 µM (inactive) and 8.96 µM (active); in assay [31] it was 8.21 µM (active). The IC50 was 1.67 µM (active) in assay [32]; > 109 µM (not active) in assay [33]; > 49.8 µM (not active) in assay [34]; 21.1 µM (active) in assay [35]; 7.16 µM (active) and 9.07 µM (active) in assay [36]; 2.25 µM (active) in assay [37]. Further, the IC50 was 12.9 µM (active) and 4.79 µM (active) in assay [38]; > 79.4 µM (not active) in assay [39].

In general, AC50 refers to the concentration at which the activity in the assay is half-maximal. What is called EC50 is the concentration giving half of the maximal effect.
